Experiments:
[1] = cited from earlier work
eggs of Trichuris suis = assay: Dyeing of Trichuris suis eggs (TSO) with ageladine A, fluorescence microscopy with UV excitation
Method: Embryonated eggs of Trichuris suis (TSO) according to specification of Ovamed GmbH. The nematode eggs are stored in the refrigerator at from 4 to 8° C. in a phosphate buffer at pH 5 with addition of potassium sorbate. For the tests, the TSO were washed several times in 1×DPBS (re-buffering) and adjusted to a concentration of 1000 TSO/ml.
Ageladine stock solution: 10 mM in MeOH (90%); 1 μl of ageladine was combined with 1000 μl of TSO suspension (see 2.5) in 15 ml tubes. The contents were mixed by gentle shaking and incubated for 10 minutes at ambient temperature in the dark.
The ISO were washed three times in DPBS after being dyed with Ageladine A (see 2.6.2). 10 μl of the samples were placed on object carriers with recesses and covered with glass covers. The object carriers were observed under the microscope Leica SP5 MP with and without UV excitation.

[2] = cited from earlier work; remark: listed apart in the source
[3] = test system: sensitive cells (for example, PC12); settings: cited from earlier work

SMILES: Nc1nc2ccnc(-c3cc(Br)c(Br)[nH]3)c2[nH]1 [ageladine A]
- pH of greatest fluorescence ([1]; fluorescence decreases as the pH value increases): ~4 pH
- stability of the dyeing ([1]; intensive dyes in cells, tissues, organisms): stable over hours and days
- tendency to fade ([1]; relatively long incubation times): scarcely has any tendency to fade
- absorption of the dye by eggs of the whipworm (eggs of Trichuris suis; eggs normally absorb dyes very poorly): very rapid
- proportion of TSO exhibiting fluorescence after incubation with ageladine A (eggs of Trichuris suis; excitation 370 nm, detection 410-480 nm, 10 minutes incubation at ambient temperature): a small percentage
- correlation between eggs marked as defective by morphological criteria and fluorescing eggs (eggs of Trichuris suis; optical blind test, fourteen TSO, UV excitation): high level of correlation
- fluorescence in degenerated eggs of Trichuris suis (eggs of Trichuris suis; ultraviolet excitation, multi-photon microscopy): fluoresces
- membrane permeability in the charged (protonated, acidic medium) state ([2]; charged state): membrane-impermeable
- membrane permeability [2]: high level of membrane-permeability
- membrane permeability in the uncharged (alkaline medium) state ([2]; uncharged state): very rapidly crosses many cell membranes
- toxicity ([3]; sensitive cells (for example, PC12), long incubation): not toxic
- cell toxicity after a long incubation time ([3]; whipworm eggs, long incubation time): not cell-toxic

— patent US20150132788A1, “ESTABLISHING THE VIABILITY OF BIOLOGICAL SAMPLES” (Ovamed GmbH, priority 2012, published 2015)
